# Reference: patent US20060147479A1, “Angiogenic medical cyanoacrylate adhesive” (priority 2002, published 2006)
# How the values were obtained:
# [1] = test system: angiogenesis; details: cited from earlier work
# [2] = Bond strength of tributyrin/cyanoacrylate blend on costal cartilage (Nene MC3000); format: physicochemical; details: 5% to 50% (w/w) tributyrin in cyanoacrylate; held 1 minute, cured an additional hour in aqueous conditions
# Experimental: 0.5 g of the sterile tributyrin was added to cyanoacrylate (9.5 g) to produce a 5% (w/w) blend in a sterile plastic universal tube. This was mixed for 2 minutes to ensure a homogenous blend. 40 μl aliquots of the blended adhesive were applied to freshly cut surfaces of costal cartilage. The two surfaces were held together for 1 minute allowing fixation and curing was allowed to continue for an additional hour in aqueous conditions. The bond strength was tested using a Nene MC3000 machine, where the applied force required to separate the bonded pieces of cartilage was recorded.
# [3] = Release of tributyrin from cured blended adhesive disks into water, gas chromatography; format: physicochemical; details: 5% w/w tributyrin cyanoacrylate sample; 2 ml water, 50° C., 1, 5 or 7 days with continuous agitation
# Experimental: 0.5g of the sterile tributyrin was added to cyanoacrylate (9.5 g) to produce a 5% (w/w) blend in a sterile plastic universal tube. This was mixed for 2 minutes to ensure a homogenous blend. Small disks of the blended adhesive were cast onto a basic solution (dilute triethylamine 0.1% aq). The disks were removed, washed briefly and dried. The disks were then placed into 2 ml water and stored at 50° C. for 1, 5 or 7 days with continuous agitation. The water was removed then added to 2 mls dichloromethane in order to extract any released tributyrin. The dichloromethane layer was analysed using gas chromatography and the amount of tributyrin recorded. The disks were dried and then placed into fresh water at 50° C. for an additional day. The amount of tributyrin released into the fresh water was measured as described for the first samples.
# [4] = Premature curing of cyanoacrylate by angiogenic agent; format: physicochemical; details: in combination with cyanoacrylate
SMILES,local release sufficient to achieve the desired angiogenic effect [1],adhesive property (bond strength; applied force required to separate the bonded pieces of cartilage) [2],tributyrin released from cured adhesive disks [3],premature cure of cyanoacrylate [4]
"CCCC(=O)O [butyric acid, butanoic acid]",10 to 1000 ng,–,–,–
"CCCC(=O)OCC(COC(=O)CCC)OC(=O)CCC [tributyrin, glcerol tributyrate; 1,2,3-(propyl)tributanoate]",–,without an unacceptable loss of adhesive property,released from a 5% w/w tributyrin cyanoacrylate sample over a 7 day period,do not cause cyanoacrylate to prematurely cure
